System: K14 mouse model of type 2 Gaucher disease
Test: K14 mouse model of type 2 Gaucher disease
Assay type: in vivo
From the text: As noted above, Gaucher Disease results from a deficiency of the lysosomal enzyme glucocerebrosidase (GC). In the most common phenotype of Gaucher disease (type 1), pathology is limited to the reticuloendothelial and skeletal systems and there are no neuropathic symptoms. See Barranger, Glucosylceramide lipidosis: Gaucher disease. In: Scriver C R B A, Sly W S, Valle D, editor. The Metabolic Basis of Inherited Disease. New York: McGraw-Hill. pp. 3635-3668 (2001). In neuropathic Gaucher disease (nGD), subdivided into type 2 and type 3 Gaucher disease, the deficiency of glucocerebrosidase (GC) causes glucosylceramide (GluCer; GL-1) and glucosylsphingosine (GluSph) to accumulate in the brain, leading to neurologic impairment. Type 2 Gaucher disease is characterized by early onset, rapid progression, extensive pathology in the viscera and central nervous system, and death usually by 2 years of age. Type 3 Gaucher disease, also known as subacute nGD, is an intermediate phenotype with varying age of onset and different degrees of severity and rates of progression. Goker-Alpan et al., The Journal of Pediatrics 143: 273-276 (2003). A recent development has produced the K14 lnl/lnl mouse model of type 2 Gaucher disease (hereinafter, the “K14 mouse”); this mouse model closely recapitulates the human disease showing ataxia, seizures, spasticity and a reduced median lifespan of only 14 days. Enquist et al., PNAS 104: 17483-17488 (2007).
As in patients with nGD, several mouse models of the disease have increased levels of GluCer and GluSph in the brain due to the deficiency in GC activity. Liu et al., PNAS 95: 2503-2508 (1998) and Nilsson, J. Neurochem 39: 709-718 (1982). The “K14” mice display a neuropathic phenotype that shares many pathologic features with type 2 Gaucher disease, such as neurodegeneration, astrogliosis, microglial proliferation, and increased levels of GluCer and GluSph in specific brain regions. Enquist et al. (2007).
Clinical management of patients affected by nGD poses a challenge for treating physicians both because of the severity of type 2 disease and the inability of the current therapies to cross the blood brain barrier (BBB). Current treatment of non-nGD relies on the intravenous delivery of recombinant human glucocerebrosidase (Imiglucerase; Cerezyme™) to replace the missing enzyme or the administration of glucosylceramide synthase inhibitors to attenuate substrate (GL-1) production. […] Current small molecule glucosylceramide synthase inhibitors in the clinic are not likely to address the neuropathic phenotypes of nGD.

In the case of `CC(C)(NC(=O)OC1CN2CCC1CC2)c1cccc(-c2ccc(F)cc2)c1` (stereo not shown) [Gz161, Quinuclidin-3-yl (2-(4′-fluoro-[1,1′-biphenyl]-3-yl)propan-2-yl)carbamate], the brain neuropathology was “reduced”, the lifespan was “extended” and the “brain GluCer” value (brain) was “reduce”. The “brain GluSph” value (brain) was “reduce”.

Reference: patent publication US9518049B2, “Salt forms of (S)-quinuclidin-3-yl (2-(2-(4-fluorophenyl)thiazol-4-yl)propan-2-yl)carbamate” (Genzyme Corporation, priority 2013, dated 2016)
